Consider five molecules from PubChem BioAssay AID1963837 (Molecular Pharmacology Branch, DTP, NCI, 2024).

Broadly, the viability, T/C is the ratio of treated to control.
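Note: spheroids exposed to drugs for seven days before readout.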

The first assay has as its system 843126-344-R-J1-PDC complex spheroid viability. Kind of assay: Anticancer human tumor 843126-344-R-J1-PDC patient-derived melanoma cell line growth inhibition [POLQ]. Particulars: second compound 0.1 µM; first compound 1 µM; hits give low values. In outline: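 Three-cell-type spheroids modelling solid tumor plus stroma served as the readout system; POL inhibitors were tested individually and in combination, concentration ranges set by clinical Cmax where known.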
`CCc1cc2c(N3CCc4c(cc(Cn5ccnc5)cc4-c4cn(C)nc4C(F)(F)F)C3=O)ccnc2c(OC)n1` + Nc1ccc(C#CCN(C(=O)Cc2ncc(C(F)(F)F)cc2C(F)(F)F)c2ccc(F)cc2)nn1: the viability, T/C is 77.1%.

Take `COc1ccc([C@@H](O)c2cc(-c3ncnc4cc(N5CCOCC5)ccc34)c(F)cc2Cl)nn1` + Nc1ccc(C#CCN(C(=O)Cc2ncc(C(F)(F)F)cc2C(F)(F)F)c2ccc(F)cc2)nn1: the viability, T/C is 82.9%.

Staying with this assay, now noted: second compound 0.1 µM; first compound 3.16 µM; hits give low values.
For `C=CC(=O)N1CCN(c2nc(=O)n(-c3c(C)ccnc3C(C)C)c3nc(-c4c(O)cccc4F)c(F)cc23)C(C)C1` (configuration not stated) + Nc1ccc(C#CCN(C(=O)Cc2ncc(C(F)(F)F)cc2C(F)(F)F)c2ccc(F)cc2)nn1, the viability, T/C was 99.2%.

For `CC(C)n1c(=O)n(C)c2cnc3cc(F)c(-c4ccc(OCCCN5CCCCC5)nc4)cc3c21` + Nc1ccc(C#CCN(C(=O)Cc2ncc(C(F)(F)F)cc2C(F)(F)F)c2ccc(F)cc2)nn1, the viability, T/C was 90.7%.

For `CC1COCCN1c1cc(-c2ccnn2C)c2ccnc(-c3ccn[nH]3)c2n1` (configuration not stated) + Nc1ccc(C#CCN(C(=O)Cc2ncc(C(F)(F)F)cc2C(F)(F)F)c2ccc(F)cc2)nn1, the viability, T/C is 43.5%.

In the case of `CCc1cc2c(N3CCc4c(cc(Cn5ccnc5)cc4-c4cn(C)nc4C(F)(F)F)C3=O)ccnc2c(OC)n1` + Nc1ccc(C#CCN(C(=O)Cc2ncc(C(F)(F)F)cc2C(F)(F)F)c2ccc(F)cc2)nn1, the viability, T/C was 88%.

In the case of `COc1ccc([C@@H](O)c2cc(-c3ncnc4cc(N5CCOCC5)ccc34)c(F)cc2Cl)nn1` + Nc1ccc(C#CCN(C(=O)Cc2ncc(C(F)(F)F)cc2C(F)(F)F)c2ccc(F)cc2)nn1, the viability, T/C was 96%.

Staying with this assay, now noted: second compound 0.1 µM; first compound 10 µM; hits give low values.
`C=CC(=O)N1CCN(c2nc(=O)n(-c3c(C)ccnc3C(C)C)c3nc(-c4c(O)cccc4F)c(F)cc23)C(C)C1` (configuration not stated) + Nc1ccc(C#CCN(C(=O)Cc2ncc(C(F)(F)F)cc2C(F)(F)F)c2ccc(F)cc2)nn1: the viability, T/C is 85.6%.

As to `CC(C)n1c(=O)n(C)c2cnc3cc(F)c(-c4ccc(OCCCN5CCCCC5)nc4)cc3c21` + Nc1ccc(C#CCN(C(=O)Cc2ncc(C(F)(F)F)cc2C(F)(F)F)c2ccc(F)cc2)nn1, the viability, T/C is 70.6%.

For the molecule `CC1COCCN1c1cc(-c2ccnn2C)c2ccnc(-c3ccn[nH]3)c2n1` (configuration not stated) + Nc1ccc(C#CCN(C(=O)Cc2ncc(C(F)(F)F)cc2C(F)(F)F)c2ccc(F)cc2)nn1, the viability, T/C is 28.6%.

For the molecule `CCc1cc2c(N3CCc4c(cc(Cn5ccnc5)cc4-c4cn(C)nc4C(F)(F)F)C3=O)ccnc2c(OC)n1` + Nc1ccc(C#CCN(C(=O)Cc2ncc(C(F)(F)F)cc2C(F)(F)F)c2ccc(F)cc2)nn1, the viability, T/C was 61.6%.

`COc1ccc([C@@H](O)c2cc(-c3ncnc4cc(N5CCOCC5)ccc34)c(F)cc2Cl)nn1` + Nc1ccc(C#CCN(C(=O)Cc2ncc(C(F)(F)F)cc2C(F)(F)F)c2ccc(F)cc2)nn1: the viability, T/C is 68.1%.

Staying with this assay, now noted: second compound 0.316 µM; first compound 0.0316 µM; hits give low values.
Take `C=CC(=O)N1CCN(c2nc(=O)n(-c3c(C)ccnc3C(C)C)c3nc(-c4c(O)cccc4F)c(F)cc23)C(C)C1` (configuration not stated) + Nc1ccc(C#CCN(C(=O)Cc2ncc(C(F)(F)F)cc2C(F)(F)F)c2ccc(F)cc2)nn1: the viability, T/C was 89.3%.

Take `CC(C)n1c(=O)n(C)c2cnc3cc(F)c(-c4ccc(OCCCN5CCCCC5)nc4)cc3c21` + Nc1ccc(C#CCN(C(=O)Cc2ncc(C(F)(F)F)cc2C(F)(F)F)c2ccc(F)cc2)nn1: the viability, T/C was 80.8%.

For `CC1COCCN1c1cc(-c2ccnn2C)c2ccnc(-c3ccn[nH]3)c2n1` (configuration not stated) + Nc1ccc(C#CCN(C(=O)Cc2ncc(C(F)(F)F)cc2C(F)(F)F)c2ccc(F)cc2)nn1, the viability, T/C was 85.3%.

For the molecule `CCc1cc2c(N3CCc4c(cc(Cn5ccnc5)cc4-c4cn(C)nc4C(F)(F)F)C3=O)ccnc2c(OC)n1` + Nc1ccc(C#CCN(C(=O)Cc2ncc(C(F)(F)F)cc2C(F)(F)F)c2ccc(F)cc2)nn1, the viability, T/C was 101%.

In the case of `COc1ccc([C@@H](O)c2cc(-c3ncnc4cc(N5CCOCC5)ccc34)c(F)cc2Cl)nn1` + Nc1ccc(C#CCN(C(=O)Cc2ncc(C(F)(F)F)cc2C(F)(F)F)c2ccc(F)cc2)nn1, the viability, T/C is 86%.

Staying with this assay, now noted: second compound 0.316 µM; first compound 0.1 µM; hits give low values.
With `C=CC(=O)N1CCN(c2nc(=O)n(-c3c(C)ccnc3C(C)C)c3nc(-c4c(O)cccc4F)c(F)cc23)C(C)C1` (configuration not stated) + Nc1ccc(C#CCN(C(=O)Cc2ncc(C(F)(F)F)cc2C(F)(F)F)c2ccc(F)cc2)nn1, the viability, T/C was 94.9%.

In the case of `CC(C)n1c(=O)n(C)c2cnc3cc(F)c(-c4ccc(OCCCN5CCCCC5)nc4)cc3c21` + Nc1ccc(C#CCN(C(=O)Cc2ncc(C(F)(F)F)cc2C(F)(F)F)c2ccc(F)cc2)nn1, the viability, T/C is 95.4%.

Turning to `CC1COCCN1c1cc(-c2ccnn2C)c2ccnc(-c3ccn[nH]3)c2n1` (configuration not stated) + Nc1ccc(C#CCN(C(=O)Cc2ncc(C(F)(F)F)cc2C(F)(F)F)c2ccc(F)cc2)nn1, the viability, T/C was 77.2%.

Turning to `CCc1cc2c(N3CCc4c(cc(Cn5ccnc5)cc4-c4cn(C)nc4C(F)(F)F)C3=O)ccnc2c(OC)n1` + Nc1ccc(C#CCN(C(=O)Cc2ncc(C(F)(F)F)cc2C(F)(F)F)c2ccc(F)cc2)nn1, the viability, T/C was 100%.

As for `COc1ccc([C@@H](O)c2cc(-c3ncnc4cc(N5CCOCC5)ccc34)c(F)cc2Cl)nn1` + Nc1ccc(C#CCN(C(=O)Cc2ncc(C(F)(F)F)cc2C(F)(F)F)c2ccc(F)cc2)nn1, the viability, T/C is 90.3%.

The assay is the same for the next values; noted with them: second compound 0.316 µM; first compound 0.316 µM; hits give low values.
With `C=CC(=O)N1CCN(c2nc(=O)n(-c3c(C)ccnc3C(C)C)c3nc(-c4c(O)cccc4F)c(F)cc23)C(C)C1` (configuration not stated) + Nc1ccc(C#CCN(C(=O)Cc2ncc(C(F)(F)F)cc2C(F)(F)F)c2ccc(F)cc2)nn1, the viability, T/C was 104%.

`CC(C)n1c(=O)n(C)c2cnc3cc(F)c(-c4ccc(OCCCN5CCCCC5)nc4)cc3c21` + Nc1ccc(C#CCN(C(=O)Cc2ncc(C(F)(F)F)cc2C(F)(F)F)c2ccc(F)cc2)nn1: the viability, T/C is 94.5%.

`CC1COCCN1c1cc(-c2ccnn2C)c2ccnc(-c3ccn[nH]3)c2n1` (configuration not stated) + Nc1ccc(C#CCN(C(=O)Cc2ncc(C(F)(F)F)cc2C(F)(F)F)c2ccc(F)cc2)nn1: the viability, T/C is 63.9%.

`CCc1cc2c(N3CCc4c(cc(Cn5ccnc5)cc4-c4cn(C)nc4C(F)(F)F)C3=O)ccnc2c(OC)n1` + Nc1ccc(C#CCN(C(=O)Cc2ncc(C(F)(F)F)cc2C(F)(F)F)c2ccc(F)cc2)nn1: the viability, T/C is 96.6%.

Regarding `COc1ccc([C@@H](O)c2cc(-c3ncnc4cc(N5CCOCC5)ccc34)c(F)cc2Cl)nn1` + Nc1ccc(C#CCN(C(=O)Cc2ncc(C(F)(F)F)cc2C(F)(F)F)c2ccc(F)cc2)nn1, the viability, T/C is 87%.
